Results: patent US20230165872A1, “COMBINATION OF BCMA-DIRECTED T CELL THERAPY AND AN IMMUNOMODULATORY COMPOUND” (Juno Therapeutics, Inc., priority 2020, published 2023)

Experiments:
RPMI-8226 target cells = assay: Rescue: rechallenge of chronically stimulated anti-BCMA CAR T cells with RPMI-8226 in the presence of compound; type: cell-based, human
Method: Anti-BCMA CAR-expressing T cells, produced as described in Example 1, were stimulated with 50 μg BCMA conjugated beads (diameter about 4.5 μm from a 50 μg/ml BCMA-conjugated bead composition) substantially as described in Example 3 to induce chronic stimulation (to produce hypofunctional, exhausted T cells). After the chronic stimulation, the CAR-T cells were rechallenged with RPMI-8226 target cells (labeled with NucLightRed as described in Example 2) at a 1:1 (effector:target) ratio in the presence of (rescued) with Compound A (iberdomide, (S)-3-[4-(4-morpholin-4-ylmethyl-benzyloxy)-1-oxo-1,3-dihydro-isoindol-2-yl]-piperidine-2,6-dione) (1 nM or 10 nM), Compound B ((S)-4-(4-(4-(((2-(2,6-dioxopiperidin-3-yl)-1-oxoisoindolin-4-yl)oxy)methyl)benzyl)piperazin-1-yl)-3-fluorobenzonitrile) (0.1 nM or 1 nM), or DMSO vehicle control.
Killing activity and cytokine production were assessed as described in Example 3.
Studies were undertaken to determine whether Compound A (iberdomide, (S)-3-[4-(4-morpholin-4-ylmethyl-benzyloxy)-1-oxo-1,3-dihydro-isoindol-2-yl]-piperidine-2,6-dione) rescued anti-BCMA CAR T cell function following chronic stimulation. To directly stimulate via CAR engagement to induce chronic stimulation of cells, anti-BCMA CAR T cells were stimulated with BCMA conjugated beads (diameter about 4.5 μm from a 50 μg/ml BCMA-conjugated bead composition, generated as described in Example 9) at a ratio of T cells to beads of 1:1. The cells were then incubated at 37° C., 5% CO2 for 7 days.
Cultures were incubated at 37° C., 5% CO2, and images were taken every 2 hours over 5-7 days with an Essen IncuCyte Zoom live-cell analysis system to track NucLightRed-positive target cells.

Aiolos and Ikaros = conditions: compared with lenalidomide and pomalidomide; cited from earlier work
[1] = system: OPM2 (multiple myeloma) cells; assay: Murine orthotopic OPM-2 tumor model (sensitive), anti-BCMA CAR T cells plus Compound A; type: in vivo, mouse; conditions: for tumor burden (BLI) versus anti-BCMA CAR T cells alone: combination with 0.5×10^6 CAR T cells, 1 or 3 mg/kg oral, FIG. 6A; for survival versus anti-BCMA CAR T cells alone: FIG. 6B
Method: Anti-tumor effects of anti-BCMA CAR T cells, alone and in combination with concurrent or delayed administration of Compound A (iberdomide, (S)-3-[4-(4-morpholin ylmethyl-benzyloxy)-1-oxo-1,3-dihydro-isoindol-2-yl]-piperidine-2,6-dione), were assessed in disseminated tumor models. The combinatorial effects were assessed in both tumor models sensitive to and resistant to the immunomodulatory compound. The anti-BCMA CAR T cells used in the study were produced as described in Example 1.
The effects of anti-BCMA CAR-T cells in combination with Compound A was assessed in a murine orthotopic tumor model using OPM-2 cells, which is an tumor model sensitive to the immunomodulatory compound. Mice (NOD.Cg-Prkdc^scidIL-2rg^tm1Wj1/SzJ mice (NSG; Jackson Labs)) were injected intravenously (i.v.) with 2×10^6 OPM2 (multiple myeloma) cells transfected with firefly luciferase (OPM2-ffluc). Tumor engraftment was allowed to occur for 13 days prior to staging (14 days before CAR-T cell administration) and verified using bioluminescence imaging.
In one study, mice were administered Compound A (1 mg/kg or 3 mg/kg) via oral administration once a day starting from the day before administration of 0.5×10^6 anti-BCMA CAR T cells, and administration of Compound A was continued once a day until 32 days post-CAR T cell administration (concurrent dosing). In another study, mice were administered 0.5×10^6 anti-BCMA CAR T cells, and then Compound A (1 mg/kg or 3 mg/kg) was administered via oral administration once a day starting 12 days after anti-CAR T cell administration, which was after the peak of CAR-expressing T cell expansion, and administration was continued for 21 days until 32 days post-CAR T cell administration (delayed dosing).
For bioluminescence imaging (BLI), mice received intraperitoneal (i.p.) injections of luciferin substrate (CaliperLife Sciences, Hopkinton, Mass.) resuspended in PBS (15 μg/g body weight). The average radiance (p/s/cm^2/sr) was determined. Survival of mice treated as described above were assessed and compared over time post-infusion of CAR-expressing T cells. Survival curves were generated using the Kaplan-Meier method (GraphPad Prism 7.0, GraphPad Software, La Jolla).
The numbers of CD3+ CAR T cells were determined in the blood at day 6 and day 14 by flow cytometry using antibodies directed against CD3 and the surrogate marker on the CAR-expressing cells.

anti-BCMA CAR T cells = assay: Viability and count of anti-BCMA CAR T cells after 7-day chronic stimulation with BCMA-conjugated beads; type: cell-based, human
Method: Cryofrozen anti-BCMA CAR T cells, produced substantially as described in Example 1 and formulated at a 1:1 ratio of CD4+ and CD8^+ T cells, were thawed. To subject cells to chronic stimulation conditions, the anti-BCMA CAR+ T cells were stimulated with 50 μg BCMA conjugated beads (diameter about 4.5 μm from a 50 μg/ml BCMA-conjugated bead composition, generated as described in Example 2) at a ratio of T cells to beads of 1:1 in the presence or absence of Compound A (iberdomide, (S)-3-[4-(4-morpholin-4-ylmethyl-benzyloxy)-1-oxo-1,3-dihydro-isoindol-2-yl]-piperidine-2,6-dione) (1 nM or 10 nM), Compound B ((S)-4-(4-(4-(((2-(2,6-dioxopiperidin-3-yl)-1-oxoisoindolin-4-yl)oxy)methyl)benzyl)piperazin-1-yl)-3-fluorobenzonitrile) (0.1 nM or 1 nM), or DMSO vehicle control. The cells were then incubated at 37° C., 5% CO2 for 7 days.
At day 7, anti-BCMA CAR cells of all the samples were counted using a cellometer machine and stained for flow cytometric analysis. Cells were stained with a viability dye and analyzed by flow cytometry. Viability and count of anti-BCMA CAR T cells was increased in the presence of Compound A or Compound B.
Cryofrozen anti-BCMA CAR T cells, produced substantially as described in Example 1 and formulated at a 1:1 ratio of CD4+ and CD8+ T cells, were thawed. […] The cells were then incubated at 37° C., 5% CO2 for 7 days.
At day 7, anti-BCMA CAR cells of all the samples were counted using a cellometer machine and stained for flow cytometric analysis. Cells were stained with a viability dye and analyzed by flow cytometry.

[2] = Example 3: day 7, Compound A 1 or 10 nM, Compound B 0.1 or 1 nM
[3] = Example 7: day 7, lenalidomide 1000 nM, Compound A 0.1, 1 or 10 nM, FIG. 8

Question: Which results are given for `O=C1CC[C@H](N2Cc3c(OCc4ccc(CN5CCOCC5)cc4)cccc3C2=O)C(=O)N1` [Compound A, (S)-3-[4-(4-morpholin-4-ylmethyl-benzyloxy)-1-oxo-1,3-dihydro-isoindol-2-yl]-piperidine-2,6-dione]?
Answer: rescue of chronically activated CAR T cells (RPMI-8226 target cells; Example 4: Compound A 1 or 10 nM, Compound B 0.1 or 1 nM during re-challenge): able to rescue chronically activated CAR T cells to improve functionality; cytolytic activity, compound present during re-challenge (RPMI-8226 target cells; Example 8: E:T 0.3:1, Compound A 1 nm or 10 nM, versus no compound, FIG. 10A): improvement in cytolytic activity; production of IFN-gamma (RPMI-8226 target cells; Example 8: supernatant at 24 hours, FIG. 10B): increased production; production of IL-2 (RPMI-8226 target cells; Example 8: supernatant at 24 hours, FIG. 10C): increased production; production of TNF-alpha (RPMI-8226 target cells; Example 8: supernatant at 24 hours, FIG. 10D): increased production; efficiency of degrading Aiolos and Ikaros (Aiolos and Ikaros): more efficient at degrading Aiolos and Ikaros than lenalidomide and pomalidomide; single agent antitumor activity ([1]; Compound A alone, 1 or 3 mg/kg oral once a day): some single agent antitumor activity; tumor burden (BLI) versus anti-BCMA CAR T cells alone ([1]; concurrent dosing): reduce tumor burden; tumor burden (BLI) versus anti-BCMA CAR T cells alone ([1]; delayed dosing from day 12): reduce tumor burden; survival versus anti-BCMA CAR T cells alone ([1]; combination, concurrent dosing): improve survival; numbers of CD3+ CAR+ T cells in the blood ([1]; combination, concurrent regimen, day 6 and day 14, FIG. 6C): trend towards increased numbers; survival versus anti-BCMA CAR T cells alone ([1]; combination, delayed dosing): improve survival; count of anti-BCMA CAR T cells (anti-BCMA CAR T cells; [2]): increased; viability of anti-BCMA CAR T cells (anti-BCMA CAR T cells; [2]): increased; count of anti-BCMA CAR T cells (anti-BCMA CAR T cells; [3]): increased; viability of anti-BCMA CAR T cells (anti-BCMA CAR T cells; [3]): increased
